Experimental data published in patent US4508648A, “Phosphoric ester of antibiotic OA-6129” (Sanraku-Ocean Co., Ltd., priority 1981, dated 1985).
Values after ≈ are worked out from the molar mass of the structure shown. Where two headings read alike, the source gives them in different places.

Assays:
[1] = Relative stability in kidney homogenate of mouse; format: in vitro ADME; settings: 37° C., 60 minutes, drug solution 100-300 μg/ml, read-out: Relative stability: drug remaining as a percentage of initial concentration
Experimental: (§1) *A drug solution (100-300 μg/ml) (0.1 ml) and a kidney homogenate (0.1
(§2) ml) were allowed to react at 37° C. for 60 minutes and the mixture
(§3) was immediately heattreated at 100° C. for 15 seconds. After
(§4) centrifugation, the concentration of the drug remaining in the supernatan
(§5) solution was bioassayed as a percentage of initial concentration by
(§6) Comamonas terrigena B996.
(§7) An overnight culture of Comamonas terrigena B-996 on a nutrient agar slant was suspended in nutrient broth to give a cell suspension of absorbance 0.04 at 610 nm. One percent of the cell suspension in volume was inoculated into molten agar medium containing 0.8% in weight of Kyokuto powdered bouillon (Kyokuto Pharmaceutical Co.) and 1.0% in weight of Bato-agar (Difco Lab.), and 7 ml each of the inoculated agar medium was poured into a 9 cm petri dish to make a Comamonas assay plate.

[2] = Relative stability in kidney homogenate of man; format: in vitro ADME; settings: human (man) kidney homogenate; 37° C., 60 minutes; drug solution 100-300 μg/ml; read-out: Relative stability: drug remaining as a percentage of initial concentration
Experimental: as §1, §2, §3, §4, §5, §6, §7

[3] = test system: Enterobacter sp. E-8; experiment: Minimum inhibitory concentration, agar dilution technique; format: cell-based; settings: SP.E8, heart infusion agar, inoculum 10^6 cells/ml, read-out: Minimum Inhibitory Concentration (M.I.C.)
Source text: (§8) Minimum Inhibitory Concentration (M.I.C. in μg/ml)**
(§9) **Medium heartinfusion agar (Difco Lab.); inoculum size 10^6 cells/ml
(§10) determined by the agar dilution technique

[4] = test system: Bacillus subtilis ATCC 6633; experiment: as above; format: cell-based
Source text: as §8, §9, §10

[5] = test system: Comamonas terrigena B-996; experiment: as above; format: cell-based; settings: B996, heart infusion agar, inoculum 10^6 cells/ml, read-out: Minimum Inhibitory Concentration (M.I.C.)
Source text: as §8, §9, §10

[6] = test system: Staphylococcus aureus 209P; experiment: as above; format: cell-based; settings: read-out: Minimum Inhibitory Concentration (M.I.C.)
Source text: as §8, §9, §10

[7] = test system: Sarcina lutea; experiment: as above; format: cell-based; settings: Micrococcus luteus; heart infusion agar; inoculum 10^6 cells/ml; read-out: Minimum Inhibitory Concentration (M.I.C.)
Source text: as §8, §9, §10

[8] = test system: Staphylococcus aureus Russell; experiment: as above; format: cell-based; settings: heart infusion agar, inoculum 10^6 cells/ml, read-out: Minimum Inhibitory Concentration (M.I.C.)
Source text: as §8, §9, §10

[9] = test system: Staphylococcus aureus Smith; experiment: as above; format: cell-based; settings: read-out: Minimum Inhibitory Concentration (M.I.C.)
Source text: as §8, §9, §10

[10] = test system: Escherichia coli K-12; experiment: as above; format: cell-based; settings: K12, heart infusion agar, inoculum 10^6 cells/ml, read-out: Minimum Inhibitory Concentration (M.I.C.)
Source text: as §8, §9, §10

[11] = test system: Providencia sp. P-8; experiment: as above; format: cell-based
Source text: as §8, §9, §10

[12] = test system: Alcaligenes faecalis A1; experiment: as above; format: cell-based; settings: heart infusion agar, inoculum 10^6 cells/ml, read-out: Minimum Inhibitory Concentration (M.I.C.)
Source text: as §8, §9, §10

[13] = test system: Proteus rettgeri P-6; experiment: as above; format: cell-based; settings: Providencia rettgeri
Source text: as §8, §9, §10

[14] = test system: Proteus mirabilis P-6; experiment: as above; format: cell-based; settings: P6, heart infusion agar, inoculum 10^6 cells/ml, read-out: Minimum Inhibitory Concentration (M.I.C.)
Source text: as §8, §9, §10

[15] = test system: Staphylococcus epidermidis; experiment: as above; format: cell-based; settings: heart infusion agar, inoculum 10^6 cells/ml, read-out: Minimum Inhibitory Concentration (M.I.C.)
Source text: as §8, §9, §10

[16] = Relative stability in kidney homogenate of dog; format: in vitro ADME; settings: 37° C., 60 minutes, drug solution 100-300 μg/ml, read-out: Relative stability: drug remaining as a percentage of initial concentration
Experimental: as §1, §2, §3, §4, §5, §6, §7

[17] = test system: Serratia marcescens S-18; experiment: Minimum inhibitory concentration, agar dilution technique; format: cell-based
Source text: as §8
(§11) *Beta-lactam-resistant strain.
as §9, §10

[18] = test system: Enterobacter cloacae 45; experiment: as above; format: cell-based; settings: beta-lactam-resistant strain, heart infusion agar, inoculum 10^6 cells/ml, read-out: Minimum Inhibitory Concentration (M.I.C.)
Source text: as §8, §11, §9, §10

[19] = test system: Pseudomonas aeruginosa IFO 3445; experiment: as above; format: cell-based; settings: IFO3445, beta-lactam-resistant strain, heart infusion agar, inoculum 10^6 cells/ml, read-out: Minimum Inhibitory Concentration (M.I.C.)
Source text: as §8, §11, §9, §10

[20] = test system: Escherichia coli RGN823; experiment: as above; format: cell-based; settings: RGN823, read-out: Minimum Inhibitory Concentration (M.I.C.)
Source text: as §8, §11, §9, §10

[21] = test system: Proteus sp. P-22; experiment: as above; format: cell-based; settings: beta-lactam-resistant strain; heart infusion agar; inoculum 10^6 cells/ml; read-out: Minimum Inhibitory Concentration (M.I.C.)
Source text: as §8, §11, §9, §10

[22] = test system: Serratia marcescens T55; experiment: as above; format: cell-based; settings: beta-lactam-resistant strain, heart infusion agar, inoculum 10^6 cells/ml, read-out: Minimum Inhibitory Concentration (M.I.C.)
Source text: as §8, §11, §9, §10

[23] = test system: Proteus vulgaris GN76; experiment: as above; format: cell-based; settings: beta-lactam-resistant strain, heart infusion agar, inoculum 10^6 cells/ml, read-out: Minimum Inhibitory Concentration (M.I.C.)
Source text: as §8, §11, §9, §10

[24] = test system: Citrobacter freundii GN346; experiment: as above; format: cell-based; settings: beta-lactam-resistant strain, heart infusion agar, inoculum 10^6 cells/ml, read-out: Minimum Inhibitory Concentration (M.I.C.)
Source text: as §8, §11, §9, §10

[25] = test system: Enterobacter aerogenes E-19; experiment: as above; format: cell-based; settings: Klebsiella aerogenes, E19; beta-lactam-resistant strain; heart infusion agar; inoculum 10^6 cells/ml; read-out: Minimum Inhibitory Concentration (M.I.C.)
Source text: as §8, §11, §9, §10

[26] = test system: Klebsiella pneumoniae K13; experiment: as above; format: cell-based
Source text: as §8, §11, §9, §10

[27] = test system: Pseudomonas aeruginosa NCTC 10490; experiment: as above; format: cell-based; settings: NCTC10490, beta-lactam-resistant strain, heart infusion agar, inoculum 10^6 cells/ml, read-out: Minimum Inhibitory Concentration (M.I.C.)
Source text: as §8, §11, §9, §10

[28] = Relative stability in phosphate buffer, pH 7.0 (control); format: physicochemical; settings: 37° C., 60 minutes, drug solution 100-300 μg/ml, read-out: Relative stability: drug remaining as a percentage of initial concentration
Experimental: as §1, §2, §3, §4, §5, §6, §7

[29] = ATCC6633, heart infusion agar, inoculum 10^6 cells/ml, read-out: Minimum Inhibitory Concentration (M.I.C.)
[30] = heart infusion agar, inoculum 10^6 cells/ml
[31] = P6, heart infusion agar, inoculum 10^6 cells/ml, read-out: Minimum Inhibitory Concentration (M.I.C.)
[32] = S18, beta-lactam-resistant strain, heart infusion agar, inoculum 10^6 cells/ml, read-out: Minimum Inhibitory Concentration (M.I.C.)
[33] = K13, beta-lactam-resistant strain, heart infusion agar, inoculum 10^6 cells/ml, read-out: Minimum Inhibitory Concentration (M.I.C.)
[34] = SP.P8, heart infusion agar, inoculum 10^6 cells/ml, read-out: Minimum Inhibitory Concentration (M.I.C.)

SMILES	remaining at 1 h [1] [%]	remaining at 1 h [2] [%]	MIC [3] [µg/mL]	MIC [5] [µg/mL]	MIC [7] [µg/mL]	MIC [8] [µg/mL]	MIC [10] [µg/mL]	MIC [12] [µg/mL]	MIC [14] [µg/mL]	MIC [15] [µg/mL]	remaining at 1 h [16] [%]	MIC [18] [µg/mL]	MIC [19] [µg/mL]	MIC [20] [µg/mL]	MIC [21] [µg/mL]	MIC [22] [µg/mL]	MIC [23] [µg/mL]	MIC [24] [µg/mL]	MIC [25] [µg/mL]	remaining at 1 h [28] [%]	also measured
CCC1C(=O)N2C(C(=O)O)=C(SCCNC(=O)CCNC(=O)C(O)C(C)(C)CO)CC12 (centres unmarked) [Antibiotic OA-6129A]	7	57	12.5 (≈ 27.3 µM)	0.05 (≈ 0.109 µM)	6.25 (≈ 13.7 µM)	0.78 (≈ 1.7 µM)	12.5 (≈ 27.3 µM)	1.56 (≈ 3.41 µM)	50 (≈ 109 µM)	1.56 (≈ 3.41 µM)	25	50 (≈ 109 µM)	> 100	12.5 (≈ 27.3 µM)	100 (≈ 219 µM)	100 (≈ 219 µM)	100 (≈ 219 µM)	50 (≈ 109 µM)	25 (≈ 54.6 µM)	100	MIC [4, 29]: 0.39 µg/mL (≈ 0.852 µM); MIC [6, 30]: 0.78 µg/mL (≈ 1.7 µM); MIC [9, 30]: 1.56 µg/mL (≈ 3.41 µM); MIC ([11]; SP.P8, read-out: Minimum Inhibitory Concentration (M.I.C.)): 12.5 µg/mL (≈ 27.3 µM); MIC [13, 31]: 25 µg/mL (≈ 54.6 µM); MIC [17, 32]: 100 µg/mL (≈ 219 µM); MIC [26, 33]: 50 µg/mL (≈ 109 µM); MIC [27]: > 100 µg/mL
CC(O)C1C(=O)N2C(C(=O)O)=C(SCCNC(=O)CCNC(=O)C(O)C(C)(C)CO)CC12 (centres unmarked) [Antibiotic OA-6129B]	20	47									20									98	
CCC1C(=O)N2C(C(=O)O)=C(SCCNC(C)=O)CC12 (centres unmarked) [Antibiotic PS-5]	10	28									10									100	
Cc1nnc(SCC2=C(C(=O)O)N3C(=O)[C@@H](NC(=O)Cn4cnnn4)[C@H]3SC2)s1 [Cefazolin]			1.56 (≈ 3.43 µM)	0.1 (≈ 0.22 µM)	0.39 (≈ 0.858 µM)	0.2 (≈ 0.44 µM)	1.56 (≈ 3.43 µM)	3.13 (≈ 6.89 µM)	6.25 (≈ 13.8 µM)	0.2 (≈ 0.44 µM)		> 400	> 400	1.56 (≈ 3.43 µM)	> 400	> 400	> 400	> 400	> 400		MIC [4, 29]: 0.1 µg/mL (≈ 0.22 µM); MIC [6, 30]: 0.05 µg/mL (≈ 0.11 µM); MIC [9, 30]: 0.2 µg/mL (≈ 0.44 µM); MIC [11, 34]: 0.78 µg/mL (≈ 1.72 µM); MIC [13, 31]: 3.13 µg/mL (≈ 6.89 µM); MIC [17, 32]: > 400 µg/mL; MIC [26, 33]: 12.5 µg/mL (≈ 27.5 µM); MIC [27]: > 400 µg/mL
CCC1C(=O)N2C(C(=O)O)=C(SCCNC(=O)CCNC(=O)C(O)C(C)(C)COP(=O)(O)O)CC12 (centres unmarked) [Phosphoric ester of antibiotic OA-6129A]	47	96	3.13 (≈ 5.82 µM)	0.05 (≈ 0.093 µM)	6.25 (≈ 11.6 µM)	6.25 (≈ 11.6 µM)	3.13 (≈ 5.82 µM)	1.56 (≈ 2.9 µM)	25 (≈ 46.5 µM)	6.25 (≈ 11.6 µM)	18	25 (≈ 46.5 µM)	> 25	3.13 (≈ 5.82 µM)	25 (≈ 46.5 µM)	> 25	25 (≈ 46.5 µM)	> 25	12.5 (≈ 23.3 µM)	114	MIC ([4]; ATCC6633, read-out: Minimum Inhibitory Concentration (M.I.C.)): 3.13 µg/mL (≈ 5.82 µM); MIC [6, 30]: 1.56 µg/mL (≈ 2.9 µM); MIC [9]: 3.13 µg/mL (≈ 5.82 µM); MIC [11, 34]: 6.25 µg/mL (≈ 11.6 µM); MIC [13, 31]: 12.5 µg/mL (≈ 23.3 µM); MIC [17, 32]: 25 µg/mL (≈ 46.5 µM); MIC [26, 33]: 25 µg/mL (≈ 46.5 µM); MIC [27]: > 25 µg/mL
CC(O)C1C(=O)N2C(C(=O)O)=C(SCCNC(=O)CCNC(=O)C(O)C(C)(C)COP(=O)(O)O)CC12 (centres unmarked) [Phosphoric ester of antibiotic OA-6129B]	42	72	12.5 (≈ 22.6 µM)	0.39 (≈ 0.705 µM)	> 25	> 25	12.5 (≈ 22.6 µM)	6.25 (≈ 11.3 µM)	25 (≈ 45.2 µM)	> 25	29	> 25	> 25	12.5 (≈ 22.6 µM)	25 (≈ 45.2 µM)	25 (≈ 45.2 µM)	25 (≈ 45.2 µM)	> 25	25 (≈ 45.2 µM)	100	MIC [4, 29]: 25 µg/mL (≈ 45.2 µM); MIC [6]: 12.5 µg/mL (≈ 22.6 µM); MIC [9, 30]: > 25 µg/mL; MIC [11, 34]: 6.25 µg/mL (≈ 11.3 µM); MIC ([13]; P6, read-out: Minimum Inhibitory Concentration (M.I.C.)): 12.5 µg/mL (≈ 22.6 µM); MIC ([17]; S18, read-out: Minimum Inhibitory Concentration (M.I.C.)): 12.5 µg/mL (≈ 22.6 µM); MIC ([26]; K13, read-out: Minimum Inhibitory Concentration (M.I.C.)): 12.5 µg/mL (≈ 22.6 µM); MIC [27]: > 25 µg/mL
